Data on 8 compounds can be found in PubChem BioAssay (NCI).

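Values below derive from 48-hour exposures of cells grown in 96-well plates, with endpoints linearly interpolated between the two concentrations bracketing the appropriate inhibition level. Definition used: TGI = concentration required for complete inhibition of growth.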

Test systems include A498 renal; HCC-2998 colon; HCT-116 colon; HOP-92 NSCLC; HS 578T breast; HT29 colon; KM12 colon; MDA-MB-435; MDA-N; MOLT-4 leukemia; NCI-H460 lung; NCI/ADR-RES ovarian; RPMI-8226 leukemia; SK-MEL-2 melanoma; SK-MEL-5 melanoma; T-47D breast; TK-10 renal; U251 CNS; NCI-H522 lung.
What all share (experiment): NCI tumour cell line growth inhibition, 48 h

Consider `COC(=O)C1=C(O)C(C(=O)OC)[C@]2(O)[C@H](C(=O)OC)[C@H]1C[C@@H](c1ccc(F)cc1)[C@H]2C(=O)OC` (some centres not stated), for which the TGI in the assay with A498 renal is 35.1 µM; in the assay with HCC-2998 colon, 28.7 µM; in the assay on HCT-116 colon, 20.3 µM; with HOP-92 NSCLC it was more than 100 µM; in the assay with HS 578T breast, 81.8 µM; in the assay with HT29 colon, 34 µM. For the same compound, the TGI was 47.9 µM with KM12 colon; 61 µM in the assay with MDA-MB-435; 17.1 µM in the assay with MDA-N; more than 100 µM with MOLT-4 leukemia; 63.1 µM with NCI-H460 lung; 36.8 µM in the assay on NCI/ADR-RES ovarian. The TGI with RPMI-8226 leukemia is 69.7 µM; with SK-MEL-2 melanoma it was 19 µM; in the assay on SK-MEL-5 melanoma, 25.2 µM; with T-47D breast, more than 100 µM; in the assay with TK-10 renal it was 57.5 µM; in the assay with U251 CNS it was 31.9 µM.
On to `Cc1oc2c(c1C)S(=O)(=O)C(C#N)=C(c1ccccc1)N2`, for which the TGI in the assay with A498 renal, in the assay on HCC-2998 colon, in the assay with HOP-92 NSCLC, with HS 578T breast, with HT29 colon and in the assay with KM12 colon was more than 100 µM in each case. For the same compound, the TGI in the assay on MDA-MB-435, in the assay on MDA-N, in the assay with MOLT-4 leukemia, with NCI-H460 lung, in the assay with NCI-H522 lung and in the assay with NCI/ADR-RES ovarian was more than 100 µM each time. In addition, the TGI in the assay on RPMI-8226 leukemia, in the assay with SK-MEL-2 melanoma, in the assay with SK-MEL-5 melanoma, with T-47D breast, with TK-10 renal and in the assay on U251 CNS was more than 100 µM in each case.
On to `c1ccc2c(C3CCN(CCN4CCOCC4)C3)c[nH]c2c1` (configuration not stated), for which the TGI in the assay on A498 renal, with HCC-2998 colon, in the assay on HCT-116 colon, in the assay with HOP-92 NSCLC, in the assay with HS 578T breast and in the assay on HT29 colon was more than 100 µM in each case. Also, the TGI in the assay on KM12 colon, in the assay with MDA-MB-435, in the assay with MDA-N, in the assay on NCI-H460 lung, in the assay with NCI-H522 lung and with NCI/ADR-RES ovarian was more than 100 µM throughout. Moreover, the TGI in the assay with RPMI-8226 leukemia, in the assay on SK-MEL-2 melanoma, in the assay with SK-MEL-5 melanoma, in the assay on T-47D breast, in the assay with TK-10 renal and in the assay with U251 CNS was more than 100 µM in each case.
With `Nc1nc(N)c2cc(Sc3ccc4nc(N)nc(N)c4c3)ccc2n1`, the TGI in the assay on A498 renal, in the assay on HCC-2998 colon, in the assay on HCT-116 colon, in the assay with HOP-92 NSCLC, with HS 578T breast and in the assay with HT29 colon was more than 100 µM throughout. Also, the TGI with KM12 colon, in the assay with MDA-MB-435, in the assay on MDA-N, in the assay with MOLT-4 leukemia, in the assay with NCI-H460 lung and in the assay on NCI/ADR-RES ovarian was more than 100 µM throughout. For the same compound, the TGI with RPMI-8226 leukemia, in the assay with SK-MEL-2 melanoma, with T-47D breast, with TK-10 renal and in the assay with U251 CNS was more than 100 µM in each case.
As to `O=C1CC(=O)NC(=NN2C(=O)/C(=C/C(=O)c3ccco3)N=C2c2ccccc2)N1`, the TGI with A498 renal, in the assay with HCC-2998 colon, in the assay on HCT-116 colon, in the assay with HOP-92 NSCLC, in the assay with HS 578T breast and in the assay with HT29 colon was more than 100 µM each time. For the same compound, the TGI is more than 100 µM with KM12 colon; more than 100 µM in the assay with MDA-MB-435; more than 100 µM in the assay on MDA-N; 60.7 µM in the assay on MOLT-4 leukemia; more than 100 µM in the assay on NCI-H460 lung; 79.8 µM in the assay with NCI-H522 lung. In addition, the TGI in the assay with NCI/ADR-RES ovarian, in the assay with SK-MEL-2 melanoma, in the assay with T-47D breast, in the assay with TK-10 renal and with U251 CNS was more than 100 µM in each case.
`CN1C2CCC1CC(CCOC(c1ccc(F)cc1)c1ccc(F)cc1)C2` (configuration not stated): the TGI in the assay on A498 renal was found to be 36.1 µM; with HCT-116 colon, 27.4 µM; in the assay with HOP-92 NSCLC, 34.3 µM; in the assay with HS 578T breast, 44.5 µM; in the assay with HT29 colon, 19.1 µM; in the assay on KM12 colon, 30.8 µM. The TGI worked out at 25.7 µM with MDA-MB-435; 37.5 µM in the assay on MDA-N; 44 µM in the assay with MOLT-4 leukemia; 32.2 µM with NCI-H460 lung; 31.9 µM in the assay with NCI-H522 lung; 36.5 µM with NCI/ADR-RES ovarian. Moreover, the TGI in the assay with RPMI-8226 leukemia is 44.4 µM; in the assay with SK-MEL-2 melanoma, 31.4 µM; in the assay with SK-MEL-5 melanoma it was 21.3 µM; in the assay with T-47D breast it was 39.2 µM; in the assay on TK-10 renal, 28.8 µM; in the assay with U251 CNS, 28.1 µM.
As for `Cc1ccc(-n2cnc3c(N)nc(N)nc32)cc1`, the TGI with A498 renal, in the assay with HCC-2998 colon, with HCT-116 colon, in the assay on HOP-92 NSCLC, in the assay with HS 578T breast and in the assay on HT29 colon was more than 100 µM each time. In addition, the TGI in the assay with KM12 colon, in the assay with MDA-MB-435, in the assay with MDA-N, in the assay with MOLT-4 leukemia, in the assay on NCI-H522 lung and with NCI/ADR-RES ovarian was more than 100 µM each time. The TGI with RPMI-8226 leukemia, in the assay with SK-MEL-2 melanoma, in the assay on SK-MEL-5 melanoma, in the assay on T-47D breast, with TK-10 renal and with U251 CNS was more than 100 µM in each case.
Take `N#C/C(=C\c1cn(Cc2ccccc2)c2ccccc12)c1nn(-c2ccccc2)c(N)c1C#N`: the TGI in the assay with A498 renal was 59.3 µM; with HCT-116 colon it was more than 100 µM; with HOP-92 NSCLC it was 27.2 µM; in the assay on HS 578T breast, more than 100 µM; with HT29 colon, 27.3 µM; in the assay on KM12 colon, more than 100 µM. Moreover, the TGI is 74.6 µM in the assay on MDA-MB-435; 88.1 µM in the assay with MDA-N; more than 100 µM in the assay on MOLT-4 leukemia; 25.9 µM in the assay with NCI-H460 lung; 34.7 µM in the assay with NCI-H522 lung; 49 µM in the assay on NCI/ADR-RES ovarian. In addition, the TGI was more than 100 µM with RPMI-8226 leukemia; 16.9 µM in the assay with SK-MEL-2 melanoma; 23.6 µM in the assay with SK-MEL-5 melanoma; 23.3 µM with T-47D breast; 35.8 µM in the assay on TK-10 renal; 26.5 µM in the assay with U251 CNS.
